Source: PMC10705938, “Discovery of Anti-Coronavirus Cinnamoyl Triterpenoids Isolated from Hippophae rhamnoides during a Screening of Halophytes from the North Sea and Channel Coasts in Northern France” (International Journal of Molecular Sciences, 2023)
In brackets after ≈: the same amount, converted by molar mass. Like-named read-outs stand apart in the source and are kept apart here.

Assays:
[1] = test system: Staphylococcus capitis; set-up: method as in PMID 11199141; conditions: cited from earlier work
[2] = test system: Candida albicans; set-up: method as in PMID 11199141; conditions: cited from earlier work
[3] = test system: HCoV-229E; test: HCoV-229E-Luc infection assay (luciferase) in Huh-7 cells; assay type: cell-based; conditions: Human coronavirus 229E, purified compounds
[4] = in vitro; conditions: human, Huh-7 cells
Procedure: The cytotoxicity of 25 crude methanolic extracts was tested on Huh-7 cells using an [3-(4,5-dimethylthiazol-2-yl)-5-(3-carboxymethoxyphenyl)-2-(4-sulfophenyl)-2H-tetrazolium]- based (MTS) viability assay. Huh-7 cells were treated with two different concentrations of the crude methanolic extracts (25 and 100 μg/mL) for 24 h. Non-treated control cells were incubated with 0.1% dimethyl sulfoxide (DMSO) in the media.
Huh-7 cells and Vero-81 cells were seeded in 96-well plates and incubated with 100 μL of culture medium containing increasing concentrations of our compounds for 24 h. An MTS based viability assay (CellTiter 96 aqueous nonradioactive cell proliferation assay, Promega, Madison WI, USA) was performed, as recommended by the manufacturer. The absorbance of formazan at 490 nm was detected using ELx808 plate reader (BioTek Instruments Inc., Winooski, VT, USA). Each measurement was performed in triplicate.

[5] = test system: HCoV-229E; test: HCoV-229E-Luc infection assay (luciferase) in Huh-7/TMPRSS2 cells; assay type: cell-based; conditions: Human coronavirus 229E, purified compounds
[6] = test system: SARS-CoV-2; test: microbe, parasite or virus in culture; assay type: cell-based; conditions: read-out: inhibition of SARS-CoV-2 (N protein levels)
[7] = test system: SARS-CoV-2 Mpro enzyme; set-up: method as in PMID 35066300; conditions: cited from earlier work
[8] = test system: hepatitis C virus; set-up: method as in PMID 30842319; conditions: cited from earlier work
[9] = test system: SARS-CoV-2 spike pseudotyped virus; conditions: in vitro; cited from earlier work

SMILES | IC50 [3] [µM] | CC50 at 24 h [4] [µM] | IC50 [5] [µM] | other results
CC1(C)CC[C@]2(C(=O)O)CC[C@]3(C)C(=CC[C@@H]4[C@@]5(C)C[C@@H](O)[C@H](OC(=O)/C=C/c6ccc(O)cc6)C(C)(C)[C@@H]5CC[C@]43C)[C@@H]2C1 (relative stereo) [3-β -O-(trans-p-coumaroyl)maslinic acid] |  |  |  | minimum inhibitory concentration [1]: 12.5 µg/mL (≈ 20.2 µM); minimum inhibitory concentration [2]: 12.5 µg/mL (≈ 20.2 µM)
CC1(C)CC[C@]2(C(=O)O)CC[C@]3(C)C(=CC[C@@H]4[C@@]5(C)C[C@@H](OC(=O)/C=C/c6ccc(O)cc6)[C@H](O)C(C)(C)[C@@H]5CC[C@]43C)[C@@H]2C1 [F2-1, 2-O-trans-p-coumaroyl-maslinic acid] | 8.6 | 39.9 | 9.1 | 
C[C@H]1[C@H](C)CC[C@]2(C(=O)O)CC[C@]3(C)C(=CC[C@@H]4[C@@]5(C)C[C@@H](OC(=O)/C=C/c6ccc(O)cc6)[C@H](O)C(C)(C)[C@@H]5CC[C@]43C)[C@H]12 [F2-2, 3β-hydroxy-2α-trans-p-coumaryloxy-urs-12-en-28-oic acid] | 12 | 44.4 | 11.4 | 
C[C@H]1[C@H](C)CC[C@]2(C(=O)O)CC[C@]3(C)C(=CC[C@@H]4[C@@]5(C)C[C@@H](OC(=O)/C=C\c6ccc(O)cc6)[C@H](O)C(C)(C)[C@@H]5CC[C@]43C)[C@H]12 [F2-3, 3β-hydroxy-2α-cis-p-coumaryloxy-urs-12-en-28-oic acid] | 14.5 | 52.1 | 14.1 | 
CC1(C)CC[C@]2(C(=O)O)CC[C@]3(C)C(=CC[C@@H]4[C@@]5(C)CC[C@H](OC(=O)/C=C/c6ccc(O)c(O)c6)C(C)(C)[C@@H]5CC[C@]43C)[C@@H]2C1 [F4-2, 3-O-trans-caffeoyl-oleanolic acid] | 11.6 | 81.4 | 11.5 | inhibition at 50 µM ([6]; Severe acute respiratory syndrome coronavirus 2, 50 µM, Vero-81, 16 h, Western blot): 54%
CC1(C)CC[C@]2(C(=O)O)CC[C@]3(C)C(=CC[C@@H]4[C@@]5(C)CC[C@H](OC(=O)/C=C/c6ccc(O)cc6)C(C)(C)[C@@H]5CC[C@]43C)[C@@H]2C1 [F7-1, 3-O-trans-p-coumaroyl-oleanolic acid] | 11.4 | 39.3 | 10.7 | inhibition at 50 µM ([6]; Severe acute respiratory syndrome coronavirus 2, 16 h): 55.5%
C[C@H]1[C@H](C)CC[C@]2(C(=O)O)CC[C@]3(C)C(=CC[C@@H]4[C@@]5(C)CC[C@H](O)C(C)(C)[C@@H]5CC[C@]43C)[C@H]12 [UA, ursolic acid] |  |  |  | inhibition of SARS-CoV-2 Mpro enzyme activity [7]: successfully inhibited its activity
C=Cc1c(C)c(O)cc2ccc3c(C)c(O)ccc3c12 [dehydrojuncusol] |  |  |  | inhibition of hepatitis C virus replication [8]: inhibitor of hepatitis C virus replication
COc1cc(-c2oc3cc(O)cc(O)c3c(=O)c2O)ccc1O [isorhamnetin] |  |  |  | antiviral activity against SARS-CoV-2 spike pseudotyped virus [9]: displayed antiviral activity
